Data published in patent publication US20240409531A1, “BENZOXAZINONE DERIVATIVES AS SELECTIVE CYTOTOXIC AGENTS” (Merck Sharp & Dohme LLC, priority 2021, published 2024).

System: PBMCs infected with VSV-G pseudotyped HIV virus (VSV-G/pNLGI-P2A-ΔEnv)
Assay: cells
Format: cell-based
Conditions: Homo sapiens, PBMC, read-out: TACK EC50 (nM)

SMILES	EC50 [nM]
COCc1cc(=O)n(Cc2cc3c(cc2Cl)[C@@](C#CC2CC2)(C(F)(F)F)OC(=O)N3)cn1 [Example 19, (S)-6-chloro-4-(cyclopropylethynyl)-7-((4-(methoxymethyl)-6-oxopyrimidin-1(6H)-yl)methyl)-4-(trifluoromethyl)-1,4-dihydro-2H-benzo[d][1,3]oxazin-2-one]	128
NS(=O)(=O)c1ccc(Cc2ccc3c(c2)NC(=O)O[C@]3(C#CC2CC2)C(F)(F)F)cc1 (single isomer, unassigned) [Example 30A]	755
CC(F)(F)[C@@]1(C#CC2CC2)OC(=O)Nc2cc(Cn3ccnc(N)c3=O)c(Cl)cc21 [Example 25, (S)-7-((3-amino-2-oxopyrazin-1(2H)-yl)methyl)-6-chloro-4-(cyclopropylethynyl)-4-(1,1-difluoroethyl)-1,4-dihydro-2H-benzo[d][1,3]oxazin-2-one]	37
Cc1cc(=O)n(Cc2cc3c(cc2F)[C@@](C#CC2CC2)(C(F)(F)F)OC(=O)N3)cn1 (single isomer, unassigned) [Example 6A]	43
CC(F)(F)[C@@]1(C#CC2CC2)OC(=O)Nc2cc(Cc3ccnc(N)n3)ccc21 [Example 37, (S)-7-((2-aminopyrimidin-4-yl)methyl)-4-(cyclopropylethynyl)-4-(1.1-difluoroethyl)-1.4-dihydro-2H-benzo[d][1.3]oxazin-2-one]	43
CC(F)(F)[C@@]1(C#CC2CC2)OC(=O)Nc2cc(Cn3ccnc(N)c3=O)ccc21 [Example 8, (S)-7-((3-amino-2-oxopyrazin-1(2H)-yl)methyl)-4-(cyclopropylethynyl)-4-(1,1-difluoroethyl)-1,4-dihydro-2H-benzo[d][1,3]oxazin-2-one]	30
COc1cc(=O)n(Cc2cc3c(cc2F)[C@@](C#CC2CC2)(C(F)(F)F)OC(=O)N3)cn1 (single isomer, unassigned) [Example 4A]	25
Cc1cc(=O)n(Cc2cc3c(cc2Cl)[C@@](C#CC2CC2)(C(F)(F)F)OC(=O)N3)cn1 [Example 17, (S)-6-chloro-4-(cyclopropylethynyl)-7-((4-methyl-6-oxopyrimidin-1(6H)-yl)methyl)-4-(trifluoromethyl)-1,4-dihydro-2H-benzo[d][1,3]oxazin-2-one]	92
COc1cc(=O)n(Cc2cc3c(cc2Cl)[C@@](C#CC2CC2)(C(F)(F)F)OC(=O)N3)cn1 [Example 14, (S)-6-chloro-4-(cyclopropylethynyl)-7-((4-methoxy-6-oxopyrimidin-1(6H)-yl)methyl)-4-(trifluoromethyl)-1,4-dihydro-2H-benzo[d][1,3]oxazin-2-one]	63
O=C1Nc2cc(Cn3cnc(C(F)F)cc3=O)c(F)cc2[C@@](C#CC2CC2)(C(F)(F)F)O1 (single isomer, unassigned) [Example 7A]	45
CC(F)(F)[C@@]1(C#CC2CC2)OC(=O)Nc2cc(Cc3ccnc(N)c3C#N)ccc21 [Example 35, (S)-2-amino-4-((4-(cyclopropylethynyl)-4-(1,1-difluoroethyl)-2-oxo-1,4-dihydro-2H-benzo[d][1,3]oxazin-7-yl)methyl)nicotinonitrile]	20
COCc1cc(=O)n(Cc2cc3c(cc2Cl)[C@@](C#CC2CC2)(C(C)(F)F)OC(=O)N3)cn1 [Example 27, (S)-6-chloro-4-(cyclopropylethynyl)-4-(1,1-difluoroethyl)-7-((4-(methoxymethyl)-6-oxopyrimidin-1(6H)-yl)methyl)-1,4-dihydro-2H-benzo[d][1,3]oxazin-2-one]	16
CC(F)(F)[C@@]1(C#CC2CC2)OC(=O)Nc2cc(Cn3ccnc(N)c3=O)c(F)cc21 [Example 21, (S)-7-((3-amino-2-oxopyrazin-1(2H)-yl)methyl)-4-(cyclopropylethynyl)-4-(1,1-difluoroethyl)-6-fluoro-1,4-dihydro-2H-benzo[d][1,3]oxazin-2-one]	12
CC(F)(F)[C@@]1(C#CC2CC2)OC(=O)Nc2cc(Cn3cnccc3=O)c(F)cc21 [Example 22, (S)-4-(cyclopropylethynyl)-4-(1,1-difluoroethyl)-6-fluoro-7-((6-oxopyrimidin-1(6H)-yl)methyl)-1,4-dihydro-2H-benzo[d][1,3]oxazin-2-one]	12
N#Cc1c(Cc2cc3c(cc2Cl)[C@@](C#CC2CC2)(C(F)(F)F)OC(=O)N3)ccnc1N [Example 33, (S)-2-amino-4-((6-chloro-4-(cyclopropylethynyl)-2-oxo-4-(trifluoromethyl)-1,4-dihydro-2H-benzo[d][1,3]oxazin-7-yl)methyl)nicotinonitrile]	213
CC(F)(F)[C@@]1(C#CC2CC2)OC(=O)Nc2cc(Cc3ccnc(N)c3C#N)c(Cl)cc21 [Example 34, (S)-2-amino-4-((6-chloro-4-(cyclopropylethynyl)-4-(1,1-difluoroethyl)-2-oxo-1,4-dihydro-2H-benzo[d][1,3]oxazin-7-yl)methyl)nicotinonitrile]	76
CC(F)(F)[C@@]1(C#CC2CC2)OC(=O)Nc2cc(Cn3cncc(N)c3=O)c(F)cc21 [Example 20, (S)-7-((5-amino-6-oxopyrimidin-1(6H)-yl)methyl)-4-(cyclopropylethynyl)-4-(1,1-difluoroethyl)-6-fluoro-1,4-dihydro-2H-benzo[d][1,3]oxazin-2-one]	11
CC(F)(F)[C@@]1(C#CC2CC2)OC(=O)Nc2cc(Cc3ccnc(N)n3)c(F)cc21 [Example 39, (S)-7-((2-aminopyrimidin-4-yl)methyl)-4-(cyclopropylethynyl)-4-(1,1-difluoroethyl)-6-fluoro-1,4-dihydro-2H-benzo[d][1,3]oxazin-2-one]	16

SMILES	EC50 [nM]
COCc1cc(=O)n(Cc2cc3c(cc2F)[C@@](C#CC2CC2)(C(F)(F)F)OC(=O)N3)cn1 (single isomer, unassigned) [Example 5A]	35
Cc1cc(=O)n(Cc2ccc3c(c2)NC(=O)O[C@]3(C#CC2CC2)C(C)(F)F)cn1 [Example 10, (S)-4-(cyclopropylethynyl)-4-(1,1-difluoroethyl)-7-((4-methyl-6-oxopyrimidin-1(6H)-yl)methyl)-1,4-dihydro-2H-benzo[d][1,3]oxazin-2-one]	66
COc1cc(=O)n(Cc2cc3c(cc2Cl)[C@@](C#CC2CC2)(C(C)(F)F)OC(=O)N3)cn1 [Example 13, (S)-6-chloro-4-(cyclopropylethynyl)-4-(1,1-difluoroethyl)-7-((4-methoxy-6-oxopyrimidin-1(6H)-yl)methyl)-1,4-dihydro-2H-benzo[d][1,3]oxazin-2-one]	11
COc1cc(=O)n(Cc2cc3c(cc2F)[C@@](C#CC2CC2)(C(C)(F)F)OC(=O)N3)cn1 [Example 24, (S)-4-(cyclopropylethynyl)-4-(1,1-difluoroethyl)-6-fluoro-7-((4-methoxy-6-oxopyrimidin-1(6H)-yl)methyl)-1,4-dihydro-2H-benzo[d][1,3]oxazin-2-one]	9
Nc1nccn(Cc2cc3c(cc2F)[C@@](C#CC2CC2)(C(F)(F)F)OC(=O)N3)c1=O (single isomer, unassigned) [Example 1A]	39
CC(F)(F)[C@@]1(C#CC2CC2)OC(=O)Nc2cc(Cc3ccnc(N)c3C#N)c(F)cc21 [Example 36, (S)-2-amino-4-((4-(cyclopropylethynyl)-4-(1,1-difluoroethyl)-6-fluoro-2-oxo-1,4-dihydro-2H-benzo[d][1,3]oxazin-7-yl)methyl)nicotinonitrile]	18
Nc1nccc(Cc2cc3c(cc2F)[C@@](C#CC2CC2)(C(F)(F)F)OC(=O)N3)n1 (single isomer, unassigned) [Example 31A]	91
COCc1cc(=O)n(Cc2ccc3c(c2)NC(=O)O[C@]3(C#CC2CC2)C(C)(F)F)cn1 [Example 12, (S)-4-(cyclopropylethynyl)-4-(1,1-difluoroethyl)-7-((4-(methoxymethyl)-6-oxopyrimidin-1(6H)-yl)methyl)-1,4-dihydro-2H-benzo[d][1,3]oxazin-2-one]	68
O=C1Nc2cc(Cn3cnc(C(F)F)cc3=O)c(Cl)cc2[C@@](C#CC2CC2)(C(F)(F)F)O1 [Example 18, (S)-6-chloro-4-(cyclopropylethynyl)-7-((4-(difluoromethyl)-6-oxopyrimidin-1(6H)-yl)methyl)-4-(trifluoromethyl)-1,4-dihydro-2H-benzo[d][1,3]oxazin-2-one]	83
Nc1nccn(Cc2cc3c(cc2Cl)[C@@](C#CC2CC2)(C(F)(F)F)OC(=O)N3)c1=O [Example 16, (S)-7-((3-amino-2-oxopyrazin-1(2H)-yl)methyl)-6-chloro-4-(cyclopropylethynyl)-4-(trifluoromethyl)-1,4-dihydro-2H-benzo[d][1,3]oxazin-2-one]	113
N#Cc1c(Cc2cc3c(cc2F)[C@@](C#CC2CC2)(C(F)(F)F)OC(=O)N3)ccnc1N (single isomer, unassigned) [Example 32A]	111
Cc1cc(=O)n(Cc2cc3c(cc2Cl)[C@@](C#CC2CC2)(C(C)(F)F)OC(=O)N3)cn1 [Example 28, (S)-6-chloro-4-(cyclopropylethynyl)-4-(1,1-difluoroethyl)-7-((4-methyl-6-oxopyrimidin-1(6H)-yl)methyl)-1,4-dihydro-2H-benzo[d][1,3]oxazin-2-one]	15
O=C1Nc2cc(Cn3cccn3)c(F)cc2[C@@](C#CC2CC2)(C(F)(F)F)O1 (single isomer, unassigned) [Example 29A]	428
COc1cc(=O)n(Cc2ccc3c(c2)NC(=O)O[C@]3(C#CC2CC2)C(C)(F)F)cn1 [Example 11, (S)-4-(cyclopropylethynyl)-4-(1,1-difluoroethyl)-7-((4-methoxy-6-oxopyrimidin-1(6H)-yl)methyl)-1,4-dihydro-2H-benzo[d][1,3]oxazin-2-one]	47
Nc1cncn(Cc2cc3c(cc2F)[C@@](C#CC2CC2)(C(F)(F)F)OC(=O)N3)c1=O (single isomer, unassigned) [Example 3A]	46
O=C1Nc2cc(Cn3cnccc3=O)c(F)cc2[C@@](C#CC2CC2)(C(F)(F)F)O1 (single isomer, unassigned) [Example 2A]	88
Nc1nccc(Cc2cc3c(cc2Cl)[C@@](C#CC2CC2)(C(F)(F)F)OC(=O)N3)n1 [Example 38, (S)-7-((2-aminopyrimidin-4-yl)methyl)-6-chloro-4-(cyclopropylethynyl)-4-(trifluoromethyl)-1,4-dihydro-2H-benzo[d][1,3]oxazin-2-one]	149
